Results as given in PubChem BioAssay AID2842 (Southern Research Institute, 2010).
Converted amounts (≈) assume the structure as drawn.

system: M. tuberculosis H37Rv growth inhibition; assay: Mycobacterium tuberculosis H37Rv growth inhibition, putative kinase inhibitor library, confirmatory dose response (AID 2842);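 also: bacteria incubated one week before Alamar blue readout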

| SMILES | IC90 [µg/mL] |
| --- | --- |
| O=C(Nc1nnc(-c2cc(Cl)ccc2Cl)o1)c1cc(-c2ccccc2)nc2ccccc12 | 1.96 (≈ 4.25 µM) |
| CCOC(=O)/C=C/CSc1nc2sc3c(c2c(=O)[nH]1)CCCC3 | 12.8 (≈ 36.6 µM) |
| O=C(OC1CCCCC1)c1cc2ccccc2oc1=O | 49 (≈ 180 µM) |
| Cc1cccn2c(=O)c3cc(C(=O)NC(C)c4ccccc4)c(=N)n(C4CCCCC4)c3nc12 (stereo not drawn) | 3.05 (≈ 6.7 µM) |
| CS(=O)(=O)Nc1cccc(C2=NN(c3nc(-c4ccccc4)c4cc(Cl)ccc4n3)C(c3ccco3)C2)c1 (stereo not drawn) | 1.42 (≈ 2.61 µM) |
| COc1ccc(C)c2sc(NNC(=O)c3cccc(F)c3)nc12 | 32.6 (≈ 98.4 µM) |
| OCCN1CCN(c2nc(Nc3cccc(Cl)c3)c3cnn(-c4ccccc4)c3n2)CC1 | 0.73 (≈ 1.62 µM) |
| O=C(Nc1nnc(-c2ccc(Br)cc2)o1)c1cc(Cl)sc1Cl | 3.43 (≈ 8.18 µM) |
| c1csc(Nc2nc3cc4c(cc3s2)OCO4)n1 | 8.57 (≈ 30.9 µM) |
| O=C(Nc1nnc(-c2ccc(Cl)cc2)o1)c1cccc(C(F)(F)F)c1 | 2.99 (≈ 8.13 µM) |
| CCOC(=O)c1cnc2ccc(OCC)cc2c1Nc1cccc(C)c1 | 14.1 (≈ 40.3 µM) |
| Cc1cccc2sc(NNC(=O)c3nc4ccccc4s3)nc12 | 3.36 (≈ 9.87 µM) |
| Cc1ccc2c(c1)c1nnc(-c3ccc4c(c3)OCO4)c-1cn2Cc1cccc(F)c1 | 3.39 (≈ 8.24 µM) |
| COc1cccc2sc(NNC(=O)c3cc(=O)c4ccccc4o3)nc12 | 25.5 (≈ 69.5 µM) |
| COc1cc2ccccc2cc1C(=O)Nc1nccs1 | 30.2 (≈ 106 µM) |
| Cc1ccc(C)c(-c2nnc(NC(=O)CCc3ccccc3)o2)c1 | 10.9 (≈ 33.8 µM) |
| O=C(Nc1nnc(-c2ccc(F)cc2)o1)c1cccc([N+](=O)[O-])c1 | 13.2 (≈ 40.2 µM) |
| O=C(Nc1nnc(-c2ccc(F)cc2)o1)c1cccc(C(F)(F)F)c1 | 11.7 (≈ 33.4 µM) |
| O=C(NCc1nnc(SCC(=O)N2CCC(Cc3ccccc3)CC2)o1)c1ccco1 | 25.1 (≈ 57 µM) |
| O=C(CSc1nnc2ccc(-c3cccc([N+](=O)[O-])c3)nn12)Nc1cccc(C(F)(F)F)c1 | 3.34 (≈ 7.04 µM) |
| Cc1ccc(C(=O)Nc2nnc(-c3cc(C)ccc3C)o2)c(C)c1 | 7.29 (≈ 22.7 µM) |
| Cc1ccc(C)c(-c2nnc(NC(=O)c3cc([N+](=O)[O-])ccc3Cl)o2)c1 | < 0.2 |
| C=CCNC(=S)NNc1ccc([N+](=O)[O-])cc1 | 10 (≈ 39.6 µM) |

| SMILES | IC90 [µg/mL] |
| --- | --- |
| O=C(Nc1nnc(-c2cc(Cl)ccc2Cl)o1)c1ccc(Cl)cc1Cl | 0.74 (≈ 1.84 µM) |
| CCS(=O)(=O)c1cccc(C(=O)Nc2nc3ccc(C(C)C)cc3s2)c1 | 11.3 (≈ 29.1 µM) |
| COc1cc(OC)cc(C(=O)N(CCCn2ccnc2)c2nc3cc(C)cc(C)c3s2)c1 | 6.63 (≈ 14.7 µM) |
| CSc1ccc2nc(Nc3cccc(C)c3C)sc2c1 | 18.8 (≈ 62.7 µM) |
| COc1ccc(Nc2nc(Nc3cccc(OC)c3)nc3nccnc23)cc1 | 9.86 (≈ 26.3 µM) |
| Cc1cc(C)c2nc(NNC(=O)c3ccc(F)cc3)sc2c1 | 3.98 (≈ 12.6 µM) |
| CSc1ccccc1-c1nnc(NC(=O)c2cc(Cl)ccc2Cl)o1 | 0.98 (≈ 2.58 µM) |
| N/C(=N\OC(=O)c1ccccc1F)c1ccccn1 | 18.7 (≈ 72.2 µM) |
| CCC(=O)Nc1nnc(-c2ccc(Br)cc2)o1 | 6.26 (≈ 21.1 µM) |
| c1ccc2sc(Nc3nc4cc5c(cc4s3)OCO5)nc2c1 | 18.6 (≈ 56.9 µM) |
| O=C(CCSc1ccccc1)Nc1nnc(-c2ccc3c(c2)OCCO3)o1 | 16.8 (≈ 43.9 µM) |
| O=C1CN(C(=O)c2cccc3ccccc23)C(c2ccc(F)cc2)c2cc(Br)ccc2N1 (stereo not drawn) | 10.2 (≈ 20.8 µM) |
| O=C(Nc1nnc(-c2cc(Cl)ccc2Cl)o1)C1CC1 | 7.42 (≈ 24.9 µM) |
| O=C(Nc1nnc(-c2ccc(Cl)s2)o1)c1cccc([N+](=O)[O-])c1 | 6.09 (≈ 17.4 µM) |
| CCOC(=O)c1c(NC(=O)Cc2cccc3ccccc23)sc2c1CC(C)(C)NC2(C)C | 2.08 (≈ 4.62 µM) |
| O=C(Nc1nnc(-c2cccs2)o1)C1CCCCC1 | 26.9 (≈ 97.1 µM) |
| COC(=O)c1c(NC(=O)C(c2ccccc2)c2ccccc2)sc2c1CC(C)(C)NC2(C)C | 6.07 (≈ 13.1 µM) |
| O=C(COc1ccc(Cl)cc1)NCCSc1ncc(-c2ccc(F)cc2)[nH]1 | 10 (≈ 24.6 µM) |
| O=C(Nc1nnc(-c2ccc3c(c2)CCCC3)o1)c1ccccc1Cl | 1.11 (≈ 3.14 µM) |
| O=C(Nc1nnc(-c2cccs2)o1)c1ccc([N+](=O)[O-])s1 | 1.69 (≈ 5.24 µM) |
| CC(C)(C)c1ccc(C(=O)Nc2nnc(-c3ccccn3)o2)cc1 | 8.06 (≈ 25 µM) |
| CN(C)S(=O)(=O)c1ccc(C(=O)N2CC(=O)Nc3ccc(Br)cc3C2c2ccccc2)cc1 (stereo not drawn) | 35.3 (≈ 66.8 µM) |
| COc1cccc(OCCN2CCN(c3cc(C)nc4c(-c5ccccc5)cnn34)CC2)c1 | 12 (≈ 27 µM) |

| SMILES | IC90 [µg/mL] |
| --- | --- |
| Cc1ccc2sc(NNC(=O)c3cc4ccccc4oc3=O)nc2c1C | 4.21 (≈ 11.5 µM) |
| Cc1cc(C)cc(OCCCn2c(CO)nc3ccccc32)c1 | 14 (≈ 45 µM) |
| CCc1cccc2sc(N(CCCn3ccnc3)C(=O)c3ccc(OC)c(OC)c3)nc12 | 13.9 (≈ 30.9 µM) |
| O=C(Nc1nnc(-c2cc(Cl)ccc2Cl)o1)c1ccccc1F | 0.43 (≈ 1.22 µM) |
| O=c1cnnc(N/N=C/c2ccccc2O)[nH]1 | 0.46 (≈ 1.99 µM) |
| COc1ccccc1-c1nc(C(N)=O)c2[nH]c(=O)n(-c3ccc(C(C)(C)C)cc3)c2n1 | 9.91 (≈ 23.7 µM) |
| Cc1ccc2nc(N(CCCn3ccnc3)C(=O)c3cccs3)sc2c1 | 1.73 (≈ 4.52 µM) |
| Cc1ccc(C)c(-c2nnc(NC(=O)C(C)(C)C)o2)c1 | 1.32 (≈ 4.83 µM) |
| CCN(C1CCCCC1)S(=O)(=O)c1ccc(C(=O)Nc2nnc(-c3ccc(F)cc3)o2)cc1 | 5.64 (≈ 11.9 µM) |
| COc1ccccc1-c1nnc(NC(=O)Cc2ccc(SC)cc2)o1 | 52.6 (≈ 148 µM) |
| CC(C)Oc1ccc(C(=O)Nc2nnc(-c3cc(Cl)ccc3Cl)o2)cc1 | 13.8 (≈ 35.3 µM) |
| Cc1ccc(C)c(-c2nnc(NC(=O)c3cc(Cl)sc3Cl)o2)c1 | 2.16 (≈ 5.87 µM) |
| CSc1cccc2sc(Nc3cccc(C)c3)nc12 | 12.2 (≈ 42.7 µM) |
| CSc1cccc(-c2nnc(NC(=O)/C=C/c3cccs3)o2)c1 | 4.49 (≈ 13.1 µM) |
| O=C(Nc1nc2c(s1)CCc1ccccc1-2)c1cccc(Cl)c1 | 12.4 (≈ 36.5 µM) |
| O=C(Nc1nnc(-c2ccc3c(c2)CCCC3)o1)c1cccc(Cl)c1 | 8.65 (≈ 24.4 µM) |
| Cc1ccc(C)c(-c2nnc(NC(=O)c3cccc([N+](=O)[O-])c3)o2)c1 | 29.6 (≈ 87.4 µM) |
| COc1ccc(-c2nnc(NC(=O)c3cc4ccccc4cc3OC)o2)cc1 | 26.3 (≈ 70.2 µM) |
| CC(C)OC(=O)COc1ccc2cc(-c3ccccc3)c(=O)oc2c1 | 2.97 (≈ 8.78 µM) |
| Cc1ccc(Cl)cc1N1CCN(CCn2c(C)c(C)n3c4c(=O)[nH]c(=O)n(C)c4nc23)CC1 | 49.7 (≈ 106 µM) |
| CS(=O)(=O)Nc1cccc(C2=NN(c3nc(-c4ccccc4)c4cc(Cl)ccc4n3)C(c3ccccc3F)C2)c1 (stereo not drawn) | 6.67 (≈ 11.7 µM) |
| COc1cccc2sc(Nc3nc4c(s3)CC(C)CC4)nc12 (stereo not drawn) | 5.79 (≈ 17.5 µM) |
| c1ccc(-c2csc(Nc3nc4cc5c(cc4s3)OCO5)n2)nc1 | 1.79 (≈ 5.05 µM) |

| SMILES | IC90 [µg/mL] |
| --- | --- |
| CC(=O)c1ccc(C(=O)Nc2nnc(-c3ccc(Cl)cc3)o2)cc1 | 1.8 (≈ 5.27 µM) |
| CSc1cccc2sc(Nc3cccc(Br)c3)nc12 | 6.73 (≈ 19.2 µM) |
| CCOc1ccc(-c2[nH]ncc2-c2ccc(Cl)cc2)c(O)c1 | 7.06 (≈ 22.4 µM) |
| CSc1cccc2sc(Nc3ccc(Cl)cc3)nc12 | 2.31 (≈ 7.53 µM) |
| COc1ccc(-c2nnc3c4cc(OC)c(OC)cc4n(Cc4ccc(C)cc4)cc2-3)cc1 | 95.4 (≈ 217 µM) |
| O=C1c2cccc3cccc(c23)C(=O)N1CCc1ccc(S(=O)(=O)N2CCCCC2)cc1 | 5.87 (≈ 13.1 µM) |
| CCc1ccc(-c2nnc3c4cc(OC)c(OC)cc4n(Cc4ccccc4F)cc2-3)cc1 | 8.11 (≈ 18.4 µM) |
| COc1cccc(C(=O)Nc2nnc(C3=COCCO3)o2)c1 | 4.85 (≈ 16 µM) |
| Cc1ccccc1Nc1nc(-c2cccnc2)nc2ccccc12 | 7.35 (≈ 23.5 µM) |
| Cc1c(Cc2ccc(Cl)cc2)c(NCCCN(C)C)n2c(nc3ccccc32)c1C#N | 2.21 (≈ 5.12 µM) |
| COc1ccc(-c2nnc3c4cc(OC)ccc4n(Cc4ccccc4F)cc2-3)cc1 | 9.08 (≈ 22 µM) |
| CCSc1ccc(CC(=O)Nc2nnc(-c3ccc4c(c3)OCCO4)o2)cc1 | 3.57 (≈ 8.98 µM) |
| O=C(NNc1nc2c(F)cc(F)cc2s1)c1coc2ccccc2c1=O | 3.33 (≈ 8.92 µM) |
| Cc1ccc2sc(NNC(=O)c3coc4ccccc4c3=O)nc2c1C | 34.9 (≈ 95.5 µM) |
| CC(C)N1CCc2c(sc(NC(=O)c3ccc(Oc4ccccc4)cc3)c2C(N)=O)C1 | 12.5 (≈ 28.7 µM) |
| COc1cccc(-c2nnc(SCC(=O)Nc3cc(C)on3)o2)c1 | 3.26 (≈ 9.41 µM) |
| Cc1ccccc1C(=O)Nc1nnc(-c2ccncc2)o1 | 13.5 (≈ 48.2 µM) |
| COc1ccccc1-c1cnn2c(Nc3cccc(Cl)c3)cc(C)nc12 | 1.72 (≈ 4.71 µM) |
| COc1cc(OC)cc(C(=O)N(CCCn2ccnc2)c2nc3c(C)cc(C)cc3s2)c1 | 10.1 (≈ 22.3 µM) |
| CCCOc1ccc(S(=O)(=O)Nc2ccc3c(c2)CCC(=O)N3CC)cc1 | 13 (≈ 33.5 µM) |
| Cc1ccc2c(c1)C(c1ccccc1)N(C(=O)c1ccc(-c3ccccc3)cc1)CC(=O)N2 (stereo not drawn) | 5.05 (≈ 11.7 µM) |
| O=C(Nc1nnc(C2=COCCO2)o1)c1ccc(-c2ccccc2)cc1 | 8.24 (≈ 23.6 µM) |
| CCOc1ccc2nc(SC3CC(=O)N(c4ccc(N5CCCCC5)cc4)C3=O)sc2c1 (stereo not drawn) | 24.8 (≈ 53 µM) |

| SMILES | IC90 [µg/mL] |
| --- | --- |
| Cc1ccc(C2CC(c3c(-c4ccccc4)c4cc(Cl)ccc4[nH]c3=O)=NO2)cc1 (stereo not drawn) | 12.4 (≈ 29.9 µM) |
| O=C(Cc1ccc(F)cc1)N(CCCn1ccnc1)c1nc2c(F)cccc2s1 | 3.66 (≈ 8.87 µM) |
| Cc1nnc2ccc(-c3cccc(NC(=O)c4cccc(C(F)(F)F)c4)c3)nn12 | 22.6 (≈ 56.7 µM) |
| CCc1ccc(Nc2ncnc3c2cnn3-c2ccc(C)cc2C)cc1 | 6.47 (≈ 18.8 µM) |
| O=C(Nc1nc(-c2ccc3c(c2)CCCC3)cs1)c1ccc2c(c1)OCCO2 | 14.5 (≈ 36.9 µM) |
| Fc1cccc2sc(N3CCCC3)nc12 | 86.3 (≈ 388 µM) |
| CC(C)c1ccc(OCC(=O)Nc2nccs2)cc1 | 6.88 (≈ 24.9 µM) |
| O=C(Nc1nnc(-c2ccc3c(c2)OCCO3)o1)C1CC1 | 33.9 (≈ 118 µM) |
| O=C(Nc1nnc(-c2cccs2)o1)c1cccc(C(F)(F)F)c1 | 3.48 (≈ 10.3 µM) |
| COc1ccccc1N1CCN(c2nc(Nc3ccc(F)cc3)c3nccnc3n2)CC1 | 27.6 (≈ 63.9 µM) |
| Cc1ccc(C)c2sc(N(CCCn3ccnc3)C(=O)COc3ccccc3)nc12 | 6.05 (≈ 14.4 µM) |
| O=C(CS(=O)(=O)c1ccccc1)Nc1cccc2c1C(=O)c1ccccc1C2=O | 20.9 (≈ 51.5 µM) |
| C=CCOC(=O)COc1ccc2c(-c3cc4ccccc4oc3=O)cc(=O)oc2c1 | 4.35 (≈ 10.8 µM) |
| O=C(c1ccc(NC2=C(Cl)C(=O)N(Cc3ccccc3)C2=O)cc1)N1CCCCCC1 | 11.2 (≈ 25.5 µM) |
| Cc1ccc2sc(N(CCCn3ccnc3)C(=O)COc3ccccc3)nc2c1C | 5.39 (≈ 12.8 µM) |
| O=C(Nc1nnc(-c2ccc(Br)cc2)o1)c1ccc([N+](=O)[O-])cc1 | 50.9 (≈ 131 µM) |
| Cc1ccccc1C(=O)N=Nc1c(O)[nH]c2ccc(Br)cc12 | 30.8 (≈ 85.9 µM) |
| O=C(NNc1nc2ccc(Cl)cc2s1)c1nc2ccccc2s1 | 3.15 (≈ 8.73 µM) |
| CCOC(=O)c1c(NC(=O)c2cccc3ccccc23)sc2c1CCN(CC)C2 | 5.45 (≈ 13.3 µM) |
| O=C(CCOc1ccccc1)Nc1nnc(-c2ccc3c(c2)CCCC3)o1 | 18.1 (≈ 49.8 µM) |
| CC1CCCN(Cc2c(O)ccc3c(=O)c(-c4nc5ccccc5s4)c(N)oc23)C1 (stereo not drawn) | 2.89 (≈ 6.86 µM) |
